{"source": "patent US8222278B2", "about": "“Treatment of attention-deficit/hyperactivity disorder” (Abbott Laboratories, priority 2008, dated 2012)", "key": {"[1]": {"test": "Steady state pharmacokinetics of ABT-894 after multiple oral doses", "type": "in vivo, human", "conditions": "for Cave / Cmin / Cmax / AUC: multiple doses, steady state; for Tmax: QD or BID", "procedure": "Steady state pharmacokinetic parameters of ABT-894 were determined in randomized, double-blind, placebo-controlled, parallel-design or crossover-design studies conducted with ABT-894. In these studies ABT-894 or matching placebo was administered orally either once daily (QD) or twice daily (BID) to subjects and serial blood samples were collected in order to determine ABT-894 plasma concentrations and pharmacokinetic parameters.\nAs used herein, Cmax refers to peak plasma concentration of a therapeutic agent, in this case ABT-894, under steady state conditions.\nAs used herein, Cave refers to average plasma concentration of a therapeutic agent. in this case ABT-894, under steady state conditions.\nAs used herein, Cmin refers to the minimum plasma concentration of a therapeutic agent, in this case ABT-894, under steady state conditions.\nAs used herein. Tmax refers to the time required to reach peak concentration.\nAs used herein, AUC12 refers to the area under the curve determined for 12 hours.\nAs used herein. AUC24 refers to the area under the curve determined for 24 hours."}, "adults with ADHD": {"tested_on": "adults with ADHD", "test": "Study A: weight and vital signs", "type": "in vivo, human", "conditions": "final evaluation (LOCF)", "procedure": "The treatment group differences in vital signs were analyzed using a Grizzle Model similar to the model used for the efficacy analyses with the exclusion of period-specific baselines."}}, "note": "Like-named read-outs stand apart in the source and are kept apart here."}
{"compound": "Clc1cc(N2C[C@@H]3CN[C@@H]3C2)cnc1Cl", "note": "[ABT-894, 3-(5,6-Dichloro-pyridin-3-yl)-1S,5S-3,6-diazabicyclo[3.2.0]heptane]", "values": [{"measurement": "Cave", "setting": "[1]; 2 mg QD, plasma", "value": "about 2 ng/mL"}, {"measurement": "Cmin", "setting": "[1]; 2 mg QD, plasma", "value": "about 0.3 ng/mL"}, {"measurement": "Cave", "setting": "[1]; 4 mg BID, plasma", "value": "6 to 10", "unit": "ng/mL"}, {"measurement": "Cmin", "setting": "[1]; 4 mg BID, plasma", "value": "2 to 4", "unit": "ng/mL"}, {"measurement": "Cmax", "setting": "[1]; human, oral, 2 mg QD, plasma", "value": "~5", "unit": "ng/mL"}, {"measurement": "AUC", "setting": "[1]; human, oral, 2 mg QD, plasma, read-out: AUC24", "value": "~46", "unit": "ng·h/mL"}, {"measurement": "Cmax", "setting": "[1]; human, oral, 4 mg BID, plasma", "value": "11 to 15", "unit": "ng/mL"}, {"measurement": "AUC", "setting": "[1]; human, oral, 4 mg BID, plasma, read-out: AUC12", "value": "72 to 114", "unit": "ng·h/mL"}, {"measurement": "Tmax", "setting": "[1]; human, plasma, po, read-out: Tmax", "value": "2 to 4", "unit": "h"}, {"measurement": "Tmax", "setting": "[1]; oral", "value": "2 to 3", "unit": "h"}, {"measurement": "Diastolic BP, mean difference from placebo", "setting": "adults with ADHD; ABT-894 1 mg QD", "value": 0.28, "unit": "mm Hg"}, {"measurement": "Pulse, mean difference from placebo", "setting": "adults with ADHD; ABT-894 1 mg QD", "value": "−0.24", "unit": "bpm"}, {"measurement": "Systolic BP, mean difference from placebo", "setting": "adults with ADHD; ABT-894 1 mg QD", "value": 1.36, "unit": "mm Hg"}, {"measurement": "Weight, mean difference from placebo", "setting": "adults with ADHD; ABT-894 1 mg QD", "value": 0.48, "unit": "kg"}, {"measurement": "Diastolic BP, mean difference from placebo", "setting": "adults with ADHD; ABT-894 2 mg QD", "value": 0.62, "unit": "mm Hg"}, {"measurement": "Pulse, mean difference from placebo", "setting": "adults with ADHD; ABT-894 2 mg QD", "value": 0.42, "unit": "bpm"}, {"measurement": "Systolic BP, mean difference from placebo", "setting": "adults with ADHD; ABT-894 2 mg QD", "value": 1.07, "unit": "mm Hg"}, {"measurement": "Weight, mean difference from placebo", "setting": "adults with ADHD; ABT-894 2 mg QD", "value": 0.09, "unit": "kg"}, {"measurement": "Diastolic BP, mean difference from placebo", "setting": "adults with ADHD; ABT-894 4 mg BID", "value": "−2.21", "unit": "mm Hg"}, {"measurement": "Pulse, mean difference from placebo", "setting": "adults with ADHD; ABT-894 4 mg BID", "value": 0.98, "unit": "bpm"}, {"measurement": "Systolic BP, mean difference from placebo", "setting": "adults with ADHD; ABT-894 4 mg BID", "value": "−0.48", "unit": "mm Hg"}, {"measurement": "Weight, mean difference from placebo", "setting": "adults with ADHD; ABT-894 4 mg BID", "value": -0.08, "unit": "kg"}, {"measurement": "Diastolic BP, mean difference from placebo", "setting": "adults with ADHD; ABT-894 4 mg QD", "value": 0.23, "unit": "mm Hg"}, {"measurement": "Pulse, mean difference from placebo", "setting": "adults with ADHD; ABT-894 4 mg QD", "value": 3.14, "unit": "bpm"}, {"measurement": "Systolic BP, mean difference from placebo", "setting": "adults with ADHD; ABT-894 4 mg QD", "value": "−0.08", "unit": "mm Hg"}, {"measurement": "Weight, mean difference from placebo", "setting": "adults with ADHD; ABT-894 4 mg QD", "value": 0.04, "unit": "kg"}]}
